Experimental data reported in patent US20220387370A1, “METHODS OF REDUCING NEUROLOGICAL DAMAGE IN WILSON DISEASE PATIENTS” (priority 2019, published 2022).
Entries after “also recorded” stand apart in the source; their conditions may differ.

Columns and labels:
PBCEC monolayers = assay: Electron microscopy of tight junctions of PBCECs; type: cell-based, porcine; settings: copper-treated PBCECs, electron micrographs
Protocol: Electron microscopy of PBCECS grown on Transwell® inserts was performed as previously described (Ye, D., K. A. Dawson, and I. Lynch, Analyst, 2015. 140(1): p. 83-97) with minor modifications. Briefly, after fixation with 2.5% glutaraldehyde, cell monolayers were post-fixed with 1% osmium tetroxide for 30 min and dehydrated by ethanol.

Cu-albumin = Cu-albumin (Bos taurus, UniProt P02769)
Cu-albumin, sequence (P02769 25-607): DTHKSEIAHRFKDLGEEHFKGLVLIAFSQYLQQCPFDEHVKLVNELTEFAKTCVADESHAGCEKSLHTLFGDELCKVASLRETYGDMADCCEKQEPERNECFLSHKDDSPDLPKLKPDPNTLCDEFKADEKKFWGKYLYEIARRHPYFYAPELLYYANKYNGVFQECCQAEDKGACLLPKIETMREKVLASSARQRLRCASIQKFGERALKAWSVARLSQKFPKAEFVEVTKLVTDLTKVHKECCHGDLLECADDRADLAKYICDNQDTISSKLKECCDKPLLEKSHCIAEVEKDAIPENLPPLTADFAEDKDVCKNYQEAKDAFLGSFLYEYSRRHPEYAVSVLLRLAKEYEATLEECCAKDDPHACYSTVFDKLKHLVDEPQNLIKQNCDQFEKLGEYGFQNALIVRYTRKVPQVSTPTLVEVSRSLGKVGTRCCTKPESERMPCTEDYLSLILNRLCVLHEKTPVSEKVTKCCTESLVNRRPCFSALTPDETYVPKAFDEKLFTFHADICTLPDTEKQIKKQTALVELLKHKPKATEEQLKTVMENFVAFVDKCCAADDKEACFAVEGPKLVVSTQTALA
Protocol: EPR spectra were recorded at 77 K using an ECS106 spectrometer (Brucker BioSpin, Karlsruhe, Germany) operating in X-band at about 9.5 GHz.

SHSY5Y cells = assay: Cellular copper content (ICP-OES), SHSY5Y; type: cell-based, human; settings: 750 μM copper, 250 μM albumin, 750 μM chelator, vs Cu-albumin alone
From the text: (§1) Afterwards, cells were trypsinized and counted.

EA.hy926 and U87MG cells = assay: Electron microscopy of mitochondrial structure; type: cell-based, human; settings: electron micrographs, co-treatment with chelator
From the text: Electron microscopy of cells was done as previously described ([…]., et al., Cell Mol Gastroenterol Hepatol, 2018. 7(3): p. 571-596) on a 1200EX electron microscope (JEOL, […], Japan) at 60 kv. Pictures were taken with a […] digital camera (Olympus, Hamburg, Germany) and processed by the iTEM software package (analySIS FIVE, Olympus, Hamburg, Germany).

[1] = tested on: HepG2, EA.hy926, U87MG and SHSY5Y cells; settings: 750 μM copper, 250 μM albumin, 750 μM chelator
Protocol: 2×10^4 cells were seeded into each well of a 96-well plate and incubated overnight. […] Cell toxicity was either determined by CellTiter-Glo® assay (Promega, Madison, USA) or Trypan blue exclusion test.
Afterwards, cells were trypsinized and counted. Cell viability was determined by Trypan blue exclusion test.

EA.hy926 cells [2] = assay: Cellular copper content (ICP-OES), EA.hy926; type: cell-based, human
From the text: as §1

HepG2 cells = assay: Cellular copper content (ICP-OES), HepG2; type: cell-based, human; settings: 750 μM copper, 250 μM albumin, 750 μM chelator, vs Cu-albumin alone
From the text: as §1

U87MG cells [3] = settings: U87MG cells subjected to respirometry (FIG. 6A), non-toxic Cu-albumin setting
From the text: as §1

Atp7b^−/− rats = assay: Chelator treatment of WD rats: copper in serum, urine and feces (ICP-OES); type: in vivo, rat
Protocol: Control Atp7b^+/- and WD Atp7b^-/- rats were fed ad libitum with normal chow (1314; 13.89 mg Cu/kg; Altromin Spezialfutter GmbH, […], Germany) and tap water. All rats were healthy at treatment start and presented no signs of acute liver damage (serum AST <200 U/L and serum bilirubin <0.5 mg/dl). […] Untreated Atp7b^+/- and Atp7b^-/- rats served as controls. Urine and feces were collected at 24-hour intervals for which rats were housed individually in metabolic cages for 4 days. After a two-day resting period off treatment in normal cages and group housing, rats were sacrificed for serum collection.

patients with WD = settings: cited from earlier work
[4] = tested on: HepG2, EA.hy926, U87MG and SHSY5Y cells; assay: Cu-albumin cell toxicity, CellTiter-Glo, all investigated cell lines; type: cell-based, human; settings: 750 μM chelator, 250 μM albumin, copper 250 to 2500 μM, 24 h
Protocol: (§2) SHSY5Y (human neuroblastoma), U87MG (human astrocytoma), EA.hy926 (human endothelium) and HepG2 (human hepatocellular carcinoma) cells were from ATCC (Wesel, Germany) and were cultured in Dulbecco's Modified Eagle Medium (DMEM) supplemented with 10% FCS (Biochrom, Berlin, Germany) and 1% antibiotic-antimycotic (Life Technologies, Carlsbad, USA). All cells were maintained at 37° C. in a humidified atmosphere with 5% CO2.

EA.hy926 cells [5] = assay: Cu-albumin cell toxicity, CellTiter-Glo, EA.hy926; type: cell-based, human
Protocol: as §2

U87MG cells [6] = settings: 750 μM chelator
Protocol: as §2

## C[N+](C)(C)CCO.C[N+](C)(C)CCO.[SH-].[SH-].[S]=[Mo]=[S] [ALXN1840, bis-choline tetrathiomolybdate]
PBCEC monolayers
  loss of electron-dense protein complexes at the cell-cell borders: can be prevented
Cu-albumin; TPC versus Cu-albumin
  drop of signal intensity of EPR-active cupric copper: around 50%
Cu-albumin; albumin, copper and ALXN1840
  copper redox status in the tripartite complex (EPR): partial reduction of copper
SHSY5Y cells
  cellular copper content: this effect was not present
EA.hy926 and U87MG cells
  Cu-albumin-induced alterations of mitochondrial structure: partially avoided these structural abnormalities; also recorded: partially reversed
[1]
  Trypan blue-assessed cell viability / copper-related cell toxicity: cellular viability was significantly maintained; also recorded: protected all cell lines
EA.hy926 cells [2]; EA.hy926, 750 μM copper, 250 μM albumin, 750 μM chelator, vs Cu-albumin alone
  cellular copper content: significantly decreased the copper content; also recorded: (significantly) lower copper content
EA.hy926 cells [2]; EA.hy926 cells subjected to respirometry (FIG. 6A), non-toxic Cu-albumin setting
  cellular copper content: significantly lower
HepG2 cells
  cellular copper content: highly similar cellular copper contents; also recorded: this effect was not present
U87MG cells [3]
  cellular copper content: significantly lower
Atp7b^−/− rats; during treatment
  fecal copper excretion: unchanged
Atp7b^−/− rats; during treatment, urine collected over 24 h
  urinary copper excretion: lack of urinal copper excretion
Atp7b^−/− rats; i.p. once daily for 4 consecutive days (ALXN1840 2.5 mg/kg bw, DPA 100 mg/kg bw), serum at sacrifice after resting period
  serum copper levels: significantly increased; also recorded: increased serum copper levels
Atp7b^−/− rats; observation period of 96 hours
  net copper excretion (urine and feces): no profoundly elevated net copper excretion
Patients with WD; at Week 24 compared with baseline, 28 patients with WD
  reduction of mean serum non-ceruloplasmin-bound Cu (NCC): 72%
Patients with WD; mild to moderate, asymptomatic, normalized with dose reduction or interruption
  patients with reversible liver function test elevations: 39%
Patients with WD; most AEs mild (Grade 1) to moderate (Grade 2)
  tolerability: generally well-tolerated
Patients with WD; upon treatment initiation
  paradoxical neurological worsening: No paradoxical neurological worsening was observed
[4]
  CellTiterGlo-assessed cell viability / Cu-albumin toxicity: fully avoided such toxicity up to a Cu-albumin ratio of 4:1
EA.hy926 cells [5]; EA.hy926, 750 μM chelator
  CellTiterGlo-assessed cell viability / Cu-albumin toxicity: protected
EA.hy926 cells [5]; EA.hy926, low dose of chelator (250 μM)
  CellTiterGlo-assessed cell viability / Cu-albumin toxicity: partially rescued
U87MG cells [6]
  CellTiterGlo-assessed cell viability / Cu-albumin toxicity: protected
